# Measurements reported in US5380710A, “Pharmaceutical compositions containing ACTH (1-24) for the therapy of shock conditions and respiratory and cardiocirculatory insufficiences” (priority 1985, dated 1995).
# Structures can show the parent of a compound that is named as a salt.
# Test system: severe hypotension induced by bleeding (hypovolemic shock), intact rats
# Assay: Hypovolemic shock by bleeding in intact rats: mean arterial pressure and survival
# Assay type: in vivo, Wistar rats
# Experimental: Intact and adrenalectomized female Wistar rats (Nossan, Correzzano, Milano, Italy) weighing 250 to 300 g, and intact male Beagle dogs (S. Morini, S. Polo d'Enza, Reggio Emilia, Italy) weighing 10 to 12 kg were used. Following anesthetization and heparinization a common carotid artery and an iliac vein were cannulated in rats, while in dogs a femoral artery and vein were used. Arterial blood pressure was recorded by means of a pressure transducer (Statham P23 Db) connected to a polygraph (Battaglia-Rangoni, Bologna, Italy). In some rats, trachea was cannulated and respiration was recorded by means of a transducer (Statham 10272) connected to the same polygraph. Hypovolemic shock was produced by intermittently withdrawing blood from the venous catheter until mean arterial pressure fell to 16-30 mm Hg. In rats, the volume of blood removed was 2-2.5 ml per 100 g of body weight and approximated to, or even exceeded, 50% of the estimated total blood volume; in dogs, the volume of blood removed was 50-60 ml per kg of body weight. Following bleeding and mean blood pressure stabilization in the range of 16-30 mm Hg, animals were given intravenous bolus of either ACTH (1-24) or naloxone.HCl.
compound,measurement,setting,value
"C=CCN1CC[C@]23c4c5ccc(O)c4O[C@H]2C(=O)CC[C@@]3(O)[C@H]1C5 [Naloxone.HCl, naloxone.HCl]",Mean arterial pressure before bleeding,"intact rats (5), Naloxone.HCl 1 μg/kg i.v. group, baseline before treatment, m ± S.E.","64,60 ± 4,70 mm Hg"
same,Mean arterial pressure after bleeding,"intact rats (5), Naloxone.HCl 1 μg/kg i.v. group, before treatment, m ± S.E.","22,00 ± 3,15 mm Hg"
same,No. of deaths 60 min. after treatment,"intact rats (5), bled, 1 μg/kg i.v.",0
same,Mean arterial pressure 15-30 min. after treatment,"intact rats (5), bled, 1 μg/kg i.v., m ± S.E.","58,20 ± 6,12 mm Hg"
same,Effect on blood pressure after bleeding,"rats, bled, 1 mg/kg i.v., within 30 minutes",completely restored blood pressure
